Experimental findings from the OligoGym collection are described below.

Several values for one entry are separate records, joined by “and”; a condition that tells them apart may be missing. Identical values can stand only once. After the bases stand the sugars from the 5' end (letter, count) and the backbone: PS all phosphorothioate, else s phosphorothioate and o phosphodiester by linkage. Methylation of C is not given here. k = constrained ethyl (cEt); d = 2'-deoxy (DNA)

In this data set the target is MALAT1. The note with it: ASO, A431, 0.005 µM.
Consider CTTCAGGCGAGCTGAG (sugars k3 d10 k3, PS), for which the target mRNA inhibition is -4%.

On to CGGGCTGCAGGCTGCG (sugars k3 d10 k3, PS), for which the target mRNA inhibition is 14%.

Consider TAGTAACCTATTGACT (sugars k3 d10 k3, PS), for which the target mRNA inhibition is -36%. Then GTATAGTTTACCACCT (sugars k3 d10 k3, PS), with 9%; and TTTAAGGTTGCATCTG (sugars k3 d10 k3, PS), with 41%. Regarding CTATCTGAAACTCTTG (sugars k3 d10 k3, PS), the target mRNA inhibition was 57% and 34%. Then CTGCATCTAGGCCATC (sugars k3 d10 k3, PS), with 65% and 52%; and CTGTCTAAGAGGTTAT (sugars k3 d10 k3, PS), with 7%. With CAATAGTACTATAGCA (sugars k3 d10 k3, PS), the target mRNA inhibition stood at 7%. For the sequence AGGTATAGTTTACCAC (sugars k3 d10 k3, PS), the target mRNA inhibition is -7%.

On to TCAACAATCACTACTC (sugars k3 d10 k3, PS), for which the target mRNA inhibition stood at 16%. For CTAATCACTGTCAATT (sugars k3 d10 k3, PS), the target mRNA inhibition was -1%.

Consider CTTCCGCCGCCTCTTA (sugars k3 d10 k3, PS), for which the target mRNA inhibition was 9%. Then GGATAAAAGCAGCTCC (sugars k3 d10 k3, PS), with 32%; and AGCAGTAGGGCTTCTC (sugars k3 d10 k3, PS), with 3%.

For the sequence TTGCCGACCTCACGGA (sugars k3 d10 k3, PS), the target mRNA inhibition stood at 30%. With TTTTACCAACCACTCG (sugars k3 d10 k3, PS), the target mRNA inhibition came out at 31%. Then CTACTTAGCTGTGGTT (sugars k3 d10 k3, PS), with 33%. Turning to TATCAATTCACCAAGG (sugars k3 d10 k3, PS), the target mRNA inhibition came to 1%. Then AGTCTCGGGCTGCAGG (sugars k3 d10 k3, PS), with 3%; and GCGAATGGCTTTGTCT (sugars k3 d10 k3, PS), with 7%.

Turning to GTTAACATGCAAACTT (sugars k3 d10 k3, PS), the target mRNA inhibition was found to be 13%.

Turning to TCTCAATTTGGCTATC (sugars k3 d10 k3, PS), the target mRNA inhibition stood at 29%. In the case of ACCGGAGCAGGAAGAA (sugars k3 d10 k3, PS), the target mRNA inhibition stood at 4%.

Turning to AACATATTGCCGACCT (sugars k3 d10 k3, PS), the target mRNA inhibition amounted to 45%. Then CCACAACAATTTAGAG (sugars k3 d10 k3, PS), with -27%. On to CGCAACTGAGCCCCAG (sugars k3 d10 k3, PS), for which the target mRNA inhibition came to 18%. To AGCTAGGGAAAAGTGG (sugars k3 d10 k3, PS) belongs -10%; to GCTCGATGGAAAAATT (sugars k3 d10 k3, PS), 10%; to CTATTGTCCCATAACT (sugars k3 d10 k3, PS), 38%. Then CTGTTATGTTCACCTG (sugars k3 d10 k3, PS), with 56% and 77%; and CTTTAGGATTCTAGAC (sugars k3 d10 k3, PS), with 7%; and TCTCATACACTCACTA (sugars k3 d10 k3, PS), with 11%. Then AGTACGAAACTCCCCC (sugars k3 d10 k3, PS), with 28%; and ACTACTCCAAGCATTG (sugars k3 d10 k3, PS), with 36%. On to TTTGGCATATGCAGAT (sugars k3 d10 k3, PS), for which the target mRNA inhibition was 24%.

As to CGCTTGAGATTTGGGC (sugars k3 d10 k3, PS), the target mRNA inhibition was found to be 33%. Take TCACCTTCGGTTTAAT (sugars k3 d10 k3, PS): the target mRNA inhibition was found to be 28%.

As for CCGCACGGAAATTTTT (sugars k3 d10 k3, PS), the target mRNA inhibition amounted to 15%.
